Test results: ChEMBL document CHEMBL1201862, “PubChem BioAssay data set” (2004)
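Results reflect a 48-hour exposure of cells in 96-well plates to compound at five concentrations. Abbreviation: GI50, concentration required for 50% inhibition of growth.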 Calls of active or inactive are those of the source. Cut-off read from the data, not from the text of the source: active = GI50 up to about 1.1 µM and inactive = higher.

Tests used:
Assay in all cases: DTP human tumour cell line panel, 48 h
[1] = system: IGROV-1
[2] = system: OVCAR-3
[3] = system: DMS-114
[4] = system: OVCAR-4
[5] = system: LXFL 529
[6] = system: XF498
[7] = system: K562
[8] = system: HCC 2998
[9] = system: SW-620
[10] = system: A549
[11] = system: SNB-78
[12] = system: COLO 205
[13] = system: HCT-116
[14] = system: HCT-15
[15] = system: SF-295
[16] = system: SN12C
[17] = system: HL-60
[18] = system: HOP-18
[19] = system: NCI-H522
[20] = system: EKVX
[21] = system: NCI-H460
[22] = system: DMS-273
[23] = system: SF-268
[24] = system: SF-539
[25] = system: 786-0
[26] = system: OVCAR-8
[27] = system: SR
[28] = system: SK-MEL-28
[29] = system: M14
[30] = system: OVCAR-5
[31] = system: SK-OV-3
[32] = system: HT-29
[33] = system: UACC-257
[34] = system: SNB-75
[35] = system: UO-31
[36] = system: SNB-19
[37] = system: ACHN
[38] = system: NCI-H226
[39] = system: SK-MEL-2
[40] = system: U-251
[41] = system: RXF 393
[42] = system: HOP-92
[43] = system: TK-10
[44] = system: CAKI-1
[45] = system: CCRF-CEM
[46] = system: HOP-62
[47] = system: UACC-62
[48] = system: DLD-1
[49] = system: A498
[50] = system: Malme-3M
[51] = system: RXF 631
[52] = system: M19-MEL
[53] = system: KM12
[54] = system: NCI-H23
[55] = system: KM-20L2
[56] = system: SK-MEL-5
[57] = system: MOLT-4
[58] = system: LOX IMVI
[59] = system: RPMI-8226

Measured: GI50

N/C(=N\O)N/N=C/c1cccs1
79.1 µM: [14]
inactive: [1] 35.4 µM | [2] 34.9 µM | [3] 54.8 µM | [4] 34 µM | [5] 32.4 µM | [6] 98.9 µM | [7] 86.9 µM | [8] 33.4 µM | [9] > 100 µM | [10] 23.9 µM | [11] > 100 µM | [12] 55.7 µM | [13] > 100 µM | [15] > 100 µM | [16] 59.8 µM | [17] 28.1 µM | [18] 53.8 µM | [19] 25.1 µM | [20] 23.7 µM | [21] 33.7 µM | [22] > 100 µM | [23] 17.2 µM | [24] > 100 µM | [25] > 100 µM | [26] 71.9 µM | [27] 67.3 µM | [28] > 100 µM | [29] 47.1 µM | [30] 47.1 µM | [31] 37.8 µM | [32] 45.1 µM | [33] > 100 µM | [34] 20 µM | [35] 55.1 µM | [36] > 100 µM | [37] 42.3 µM | [38] 57.1 µM | [39] 76.7 µM | [40] > 100 µM | [41] > 100 µM | [42] > 100 µM | [43] > 100 µM | [44] 34.4 µM | [45] > 100 µM | [46] 24.7 µM | [47] 15.8 µM | [48] 59.6 µM | [49] > 100 µM | [50] 55.8 µM | [51] > 100 µM | [52] > 100 µM | [53] 49.1 µM | [54] > 100 µM

O=C(CC1C(=O)Nc2ccccc2[S+]1[O-])Nc1cc(Cl)ccc1Cl (configuration not stated)
> 100 µM: [14]
inactive: [1] > 100 µM | [2] > 100 µM | [3] > 100 µM | [5] > 100 µM | [6] > 100 µM | [7] > 100 µM | [8] > 100 µM | [9] > 100 µM | [10] > 100 µM | [11] > 100 µM | [13] > 100 µM | [55] > 100 µM | [15] > 100 µM | [16] > 100 µM | [17] > 100 µM | [19] > 100 µM | [20] > 100 µM | [21] > 100 µM | [56] > 100 µM | [22] > 100 µM | [23] > 100 µM | [24] > 100 µM | [25] > 100 µM | [26] > 100 µM | [27] > 100 µM | [28] > 100 µM | [29] > 100 µM | [30] > 100 µM | [32] > 100 µM | [57] > 100 µM | [58] > 100 µM | [33] > 100 µM | [34] > 100 µM | [35] > 100 µM | [36] > 100 µM | [37] > 100 µM | [38] > 100 µM | [39] > 100 µM | [40] > 100 µM | [41] > 100 µM | [42] > 100 µM | [43] > 100 µM | [44] > 100 µM | [45] > 100 µM | [47] > 100 µM | [48] > 100 µM | [49] > 100 µM | [59] > 100 µM | [50] > 100 µM | [51] > 100 µM | [52] > 100 µM | [54] > 100 µM
